Like-named read-outs stand apart in the source and are kept apart here.
Columns and labels:
[1] = tested on: Cullin-3 (CUL3) neddylation; test: AlphaLISA assay for Cullin-3 (CUL3) neddylation in TF 1 cells; type: cell-based; conditions: Homo sapiens, TF-1, 3 h, 3 hours treatment
In short: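 Neddylated CUL3 was quantified by AlphaLISA in lysates of TF 1 cells exposed for 3 h to test compound in IMDM without supplements. Percent inhibition set between vehicle and 1 μM DI-1548 positive control; IC50 derived by Hill-equation fitting of dose-response curves.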

[2] = target: DCN1 (DCUND1) protein PONY domain (Homo sapiens (Human), UniProt Q96GG9); test: TR-FRET assay, DCN1 binding with FAM-labeled probe
In short: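 Biotinylated DCN1 PONY domain, labeled with streptavidin-Tb, was competed against a FAM-labeled non-covalent DCN1 inhibitor probe in buffer with TritonX and 200 mM NaCl. Conditions were 5 nM DCN1 with 20 nM FAM-probe, or 0.31 nM DCN1 with 100 nM FAM-plus 800 nM unlabeled probe. The TR-FRET ratio was read at 1, 5 and 24 h (0.1% DMSO).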

[3] = target: DCN1 protein (Homo sapiens (Human), UniProt Q96GG9); test: Intact Protein MS Analysis with the RapidFire-TOF System (covalent adduct formation); type: binding; conditions: MS Emax; 400 nM DCN1, 3 hours at room temperature
In short: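 Tag-cleaved human DCN1 (400 nM) expressed in E. coli, in 25 mM Tris-HCl, 200 mM NaCl, 1 mM DTT, was incubated with 11 compound concentrations for 3 h at room temperature and quenched with 0.2% formic acid. Intact-protein Q-TOF MS with deconvolution detected the compound adduct mass.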

[4] = 24 hr after treatment with compound, read-out: TR FRET IC50 24 hr
[5] = read-out: TR FRET IC50 1 hr, 1 hr after treatment with compound
[6] = TR FRET IC50 1 hr (nM), 1 hr after treatment with compound

Chain of DCN1 protein (Q96GG9 whole entry): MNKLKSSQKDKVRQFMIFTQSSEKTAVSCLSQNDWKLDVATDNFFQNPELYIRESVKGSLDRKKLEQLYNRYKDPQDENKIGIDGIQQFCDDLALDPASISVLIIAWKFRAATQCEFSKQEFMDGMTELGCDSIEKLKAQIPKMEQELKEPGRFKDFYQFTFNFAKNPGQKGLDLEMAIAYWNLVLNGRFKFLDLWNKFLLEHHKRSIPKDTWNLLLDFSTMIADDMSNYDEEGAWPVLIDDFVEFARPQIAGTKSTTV
Chain of DCN1 (DCUND1) protein PONY domain (Q96GG9 60-248): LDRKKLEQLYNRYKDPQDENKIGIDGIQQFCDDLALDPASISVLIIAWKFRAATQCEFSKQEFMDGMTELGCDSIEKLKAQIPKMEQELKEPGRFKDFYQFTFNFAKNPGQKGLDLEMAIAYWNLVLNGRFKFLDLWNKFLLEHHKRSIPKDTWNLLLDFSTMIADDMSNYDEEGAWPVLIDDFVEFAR

SMILES	IC50 [1]	IC50 [2, 4]	IC50 [2, 5]	% Adduct Formation [3]	IC50 [2, 6]
CCN1C(=O)[C@@H](NC(=O)c2cccc(C(F)(F)F)c2)[C@H](c2ccc(F)cc2)c2c(CNC(=O)CC#N)nn(-c3ccccc3)c21 [Compound I-299]	100 to 1000 nM	200 to 1000 nM	≤ 200 nM	+ (MS Emax % adduct formation greater than or equal to 0.0 and less than or equal to 30.0)	–
CCN1C(=O)[C@@H](NC(=O)c2cccc(C(F)(F)F)c2)[C@@H](c2ccc(F)cc2)c2c(C(=O)N(CC#N)CC#N)nn(-c3ccccc3)c21 [Compound I-302]	≤ 100 nM	≤ 200 nM	≤ 200 nM	+++ (MS Emax % adduct formation greater than 80.0 and less than or equal to 100.0)	–
CCN1C(=O)[C@@H](NC(=O)c2cccc(C(F)(F)F)c2)C(c2ccc(F)cc2)c2c(C(=O)N(C)C(C)C#N)nn(C3CCOCC3)c21 (stereo partly shown) [Compound I-305]	≤ 100 nM	≤ 200 nM	≤ 200 nM	+++ (MS Emax % adduct formation greater than 80.0 and less than or equal to 100.0)	–
CCN1C(=O)[C@@H](NC(=O)c2cccc(C(F)(F)F)c2)[C@@H](c2ccc(C)cc2)c2c(C(=O)N(C)C(C)C#N)nn(C3CC3)c21 (stereo partly shown) [Compound I-306]	≤ 100 nM	≤ 200 nM	≤ 200 nM	++ (MS Emax % adduct formation greater than 30.0 and less than or equal to 80.0)	–
CCCn1nc(C(=O)N(C)C(C)C#N)c2c1N(CC)C(=O)[C@@H](NC(=O)c1cccc(C(F)(F)F)c1)[C@H]2c1ccc(F)cc1 (stereo partly shown) [Compound I-307]	≤ 100 nM	≤ 200 nM	≤ 200 nM	+++ (MS Emax % adduct formation greater than 80.0 and less than or equal to 100.0)	–
CCN1C(=O)[C@@H](NC(=O)c2cccc(C(F)(F)F)c2)[C@@H](c2ccc(F)cc2)c2c(C(=O)N(C)[C@H](C#N)CCN3CCOCC3)nn(-c3ccccc3)c21 [Compound I-308]	≤ 100 nM	≤ 200 nM	≤ 200 nM	+++ (MS Emax % adduct formation greater than 80.0 and less than or equal to 100.0)	–
CCN1C(=O)[C@@H](NC(=O)c2cccc(C(F)(F)F)c2)[C@@H](c2ccc(F)cc2)c2c(C(=O)N(C)[C@@H](C#N)CCN3CCOCC3)nn(-c3ccccc3)c21 [Compound I-309]	≤ 100 nM	≤ 200 nM	≤ 200 nM	+ (MS Emax % adduct formation greater than or equal to 0.0 and less than or equal to 30.0)	–
CCN1C(=O)[C@@H](NC(=O)c2cccc(C(F)(F)F)c2)[C@@H](c2ccc(F)cc2)c2c(C(=O)N(C)[C@H](C#N)CCN(C)C3COC3)nn(-c3ccccc3)c21 [Compound I-310]	≤ 100 nM	≤ 200 nM	≤ 200 nM	+++ (MS Emax % adduct formation greater than 80.0 and less than or equal to 100.0)	–
CCN1C(=O)[C@@H](NC(=O)c2cccc(C(F)(F)F)c2)[C@@H](c2ccc(F)cc2)c2c(C(=O)N(C)[C@H](C#N)CCN3CC4CC(C3)O4)nn(-c3ccccc3)c21 [Compound I-312]	≤ 100 nM	≤ 200 nM	≤ 200 nM	+++ (MS Emax % adduct formation greater than 80.0 and less than or equal to 100.0)	–
CCN1C(=O)[C@@H](NC(=O)c2cccc(C(F)(F)F)c2)[C@@H](c2ccc(F)cc2)c2c(C(=O)N(C)[C@@H](C#N)CCN3CC4CC(C3)O4)nn(-c3ccccc3)c21 [Compound I-313]	≤ 100 nM	≤ 200 nM	≤ 200 nM	++ (MS Emax % adduct formation greater than 30.0 and less than or equal to 80.0)	–
CCN1C(=O)[C@@H](NC(=O)c2cccc(C(F)(F)F)c2)[C@@H](c2ccc(F)cc2)c2c(C(=O)N(C)[C@H](C#N)CCN3CCC34COC4)nn(-c3ccccc3)c21 [Compound I-314]	≤ 100 nM	≤ 200 nM	≤ 200 nM	+++ (MS Emax % adduct formation greater than 80.0 and less than or equal to 100.0)	–
CCN1C(=O)[C@@H](NC(=O)c2cccc(C(F)(F)F)c2)[C@@H](c2ccc(F)cc2)c2c(C(=O)N(C)[C@@H](C#N)CCN3CCC34COC4)nn(-c3ccccc3)c21 [Compound I-315]	≤ 100 nM	≤ 200 nM	≤ 200 nM	+++ (MS Emax % adduct formation greater than 80.0 and less than or equal to 100.0)	–
CCN1C(=O)[C@@H](NC(=O)c2cccc(C(F)(F)F)c2)[C@@H](c2ccc(F)cc2)c2c(C(=O)N(C)[C@H](C#N)CCN3CCN(C4COC4)CC3)nn(-c3ccccc3)c21 [Compound I-316]	≤ 100 nM	≤ 200 nM	≤ 200 nM	+++ (MS Emax % adduct formation greater than 80.0 and less than or equal to 100.0)	–
CCN1C(=O)[C@@H](NC(=O)c2cccc(C(F)(F)F)c2)[C@@H](c2ccc(F)cc2)c2c(C(=O)N(C)[C@@H](C#N)CCN3CCN(C4COC4)CC3)nn(-c3ccccc3)c21 [Compound I-317]	≤ 100 nM	≤ 200 nM	≤ 200 nM	+++ (MS Emax % adduct formation greater than 80.0 and less than or equal to 100.0)	–
CCN1C(=O)[C@@H](NC(=O)c2cccc(C(F)(F)F)c2)[C@@H](c2ccc(F)cc2)c2c(C(=O)N(C)[C@H](C#N)CCN3CC4CCC(C3)O4)nn(-c3ccccc3)c21 [Compound I-318]	≤ 100 nM	≤ 200 nM	–	+++ (MS Emax % adduct formation greater than 80.0 and less than or equal to 100.0)	1000 to 3000 nM
CCN1C(=O)[C@@H](NC(=O)c2cccc(C(F)(F)F)c2)[C@@H](c2ccc(F)cc2)c2c(C(=O)N(CC#N)CCN3CCN(C4COC4)CC3)nn(-c3ccccc3)c21 [Compound I-323]	≤ 100 nM	≤ 200 nM	≤ 200 nM	+++ (MS Emax % adduct formation greater than 80.0 and less than or equal to 100.0)	–
CCN1C(=O)[C@@H](NC(=O)c2cccc(C(F)(F)F)c2)[C@@H](c2ccc(F)cc2)c2c(C(=O)N3CCS(=O)(=O)CC3C#N)nn(-c3ccccc3)c21 (stereo partly shown) [Compound I-325]	≤ 100 nM	≤ 200 nM	≤ 200 nM	+++ (MS Emax % adduct formation greater than 80.0 and less than or equal to 100.0)	–
CCN1C(=O)[C@@H](NC(=O)c2cccc(C(F)(F)F)c2)[C@@H](C2CC2)c2c(C(=O)N3[C@H](C#N)C[C@H]4C[C@H]43)nn(-c3ccccc3)c21 [Compound I-326]	≤ 100 nM	≤ 200 nM	≤ 200 nM	+++ (MS Emax % adduct formation greater than 80.0 and less than or equal to 100.0)	–
CCN1C(=O)[C@@H](NC(=O)c2cccc(C(F)(F)F)c2)[C@@H](C2CC2)c2c(C(=O)N3[C@H](C#N)C[C@H]4C[C@H]43)nn(C3CC3)c21 [Compound I-327]	≤ 100 nM	≤ 200 nM	≤ 200 nM	+++ (MS Emax % adduct formation greater than 80.0 and less than or equal to 100.0)	–
CCCn1nc(C(=O)N2[C@H](C#N)C[C@H]3C[C@H]32)c2c1N(CC)C(=O)[C@@H](NC(=O)c1cccc(C(F)(F)F)c1)[C@H]2C1CC1 [Compound I-328]	≤ 100 nM	≤ 200 nM	≤ 200 nM	+++ (MS Emax % adduct formation greater than 80.0 and less than or equal to 100.0)	–
CCN1C(=O)[C@@H](NC(=O)c2cccc(C(F)(F)F)c2)[C@@H](c2ccc(F)cc2)c2c(C(=O)N3[C@H](C#N)C[C@H]4C[C@H]43)nn(C3CCOCC3)c21 [Compound I-329]	≤ 100 nM	≤ 200 nM	≤ 200 nM	+++ (MS Emax % adduct formation greater than 80.0 and less than or equal to 100.0)	–
CCN1C(=O)[C@@H](NC(=O)c2cccc(C(F)(F)F)c2)[C@@H](c2ccc(F)cc2)c2c(C(=O)N3[C@H](C#N)C[C@H]4C[C@H]43)nn(C3CC3)c21 [Compound I-330]	≤ 100 nM	≤ 200 nM	≤ 200 nM	+++ (MS Emax % adduct formation greater than 80.0 and less than or equal to 100.0)	–
CCCn1nc(C(=O)N2[C@H](C#N)C[C@H]3C[C@H]32)c2c1N(CC)C(=O)[C@@H](NC(=O)c1cccc(C(F)(F)F)c1)[C@H]2c1ccc(F)cc1 [Compound I-331]	≤ 100 nM	≤ 200 nM	≤ 200 nM	+++ (MS Emax % adduct formation greater than 80.0 and less than or equal to 100.0)	–
CCN1C(=O)[C@@H](NC(=O)c2cccc(C(F)(F)F)n2)[C@@H](c2ccc(F)cc2)c2c(C(=O)N3CCC[C@H]3C#N)nn(C3CCOCC3)c21 [Compound I-332]	≤ 100 nM	≤ 200 nM	–	+++ (MS Emax % adduct formation greater than 80.0 and less than or equal to 100.0)	200 to 1000 nM
CCN1C(=O)[C@@H](NC(=O)c2cccc(C(F)(F)F)c2F)[C@@H](c2ccc(F)cc2)c2c(C(=O)N3CCC[C@H]3C#N)nn(C3CCOCC3)c21 [Compound I-333]	≤ 100 nM	≤ 200 nM	–	+++ (MS Emax % adduct formation greater than 80.0 and less than or equal to 100.0)	200 to 1000 nM
